The results in this text go back to patent US20260356839A1, “DIRECT SYNTHESIS OF N-(3-SUBSTITUTED-CHROMAN-4-YL)-7H- PYRROLO[2,3-D]PYRIMIDIN-4-AMINES AND DERIVATIVES THEREOF” (MITOKININ, INC., priority 2022, published 2026).

Common to all, as to type: cell-based
Series [1] has as its system HeLa cells expressing mt-Keima and YFP-Parkin (HeLa MKYP). Description: Human mt-Keima Mitophagy Assay. The note with it: 16 hrs compound, then 1 μM FCCP/oligomycin for 6 hours, read-out: Mitophagy induction EC50. Here is the method: (§1) HeLa cells expressing mt-Keima and YFP-Parkin (HeLa MKYP) were plated at 10,000 cells/well in 96 well plates along with Mitokinin compounds at various concentrations. Following 16 hrs of incubation, cells were treated with 1 μM FCCP/oligomycin for 6 hours, then analyzed via FACS for the presence of mitochondria in lysosomes (as determined by an emissions spectrum shift from the pH-sensitive mt-Keima tag). Additionally, cells treated with 25 μM Mitokinin compound but not treated with FCCP/oligomycin were analyzed for cytotoxicity.
The above compound was prepared using the synthetic methods detailed herein, and evaluated for PINK1 activity. Additional exemplary PINK1 modulators for which the synthetic methods described herein can be used are described in WO 2021/168446

A short description of series [2]: In Vitro Mitotoxicity (glucose/galactose) Assay. Conditions: human, skov3 cells. Here is the method: Briefly, SKOV3 cells (ATCC HTB-77) were plated in DMEM (Corning 10-013-CV) medium containing 25 mM glucose or DMEM with no glucose (Gibco 11966-025) supplemented with 10 mM galactose at 9,000 cells/well in 96 well plates (Corning costar 3610). 24 hrs later, compounds, in DMSO, were added at various concentrations to a final 0.1% DMSO for all wells. Following 20 hours of incubation with compound, all wells had their growth medium replaced with DMEM containing 25 mM of glucose followed by the addition of Promega CellTiter-Glo® reagent as per manufacturer's instructions. After a 15 minute incubation cellular ATP levels were read out using a Promega GloMax® DiscoverMicroplate Reader.
The ratio of relative CellTiter-Glo values from cells grown in galactose to cells grown in glucose was determined (gal/glc ratio). The gal/glc ratio vs concentration is then graphed, and non-linear regression is used to find the highest concentration of MTK compound at which gal/glc>0.80 (the “highest mito-safe dose”, or IC20). The Mito-Safety Index in Table 2 is equal to the highest mito-safe dose divided by the mt-Keima EC50 dose.

A short description of series [3]: Cytotoxicity in the mt-Keima assay cells (FACS, DAPI). Conditions: human, hela mkyp cells. Here is the method:
as §1

By EC50 is commonly meant the concentration at which the effect is half-maximal. In the case of `C[C@@H]1CN([C@H]2COc3cc(F)ccc3[C@@H]2Nc2ncnc3[nH]c(C(F)(F)F)cc23)CCO1`, the 50% effective concentration (EC50) in series [1] amounted to 0.13 µM. Moreover, the selectivity ratio in series [2] (highest mito-safe dose divided by the mt-Keima EC50 dose, read-out: Mito-Safety Index (highest safe dose/EC50)) was 135. Besides, the IC20 at 20 h in series [2] (mitotox or cytotox, highest concentration at which gal/glc > 0.80 (IC20), 20 hours, read-out: Highest safe dose (mitotox or cytotox)) stood at 17.3 µM. Besides, the MNTC in series [3] (no FO, safe means DAPI + < 20%, read-out: Highest safe dose (cytotoxicity; no FO; safe means DAPI+ < 20%)) is 21.9 µM. In addition, in series [3] (with 1 μM FCCP/oligomycin (FO), read-out: Max % death with 1 μM FO), the cytotoxicity is 29.6%.
